According to US11174250B2, “Substituted carboxamides as inhibitors of WDR5 protein-protein binding” (PROPELLON THERAPEUTICS INC., priority 2016, dated 2021):
Where two headings read alike, the source gives them in different places.

Legend:
[1] = biological target: MLL1-WRAD2 complex (Homo sapiens (Human), UniProt P61964); assay: MLL1-WRAD2 enzyme assay (in vitro methyl transferase assay); assay type: biochemical; conditions: MLL1-WRAD2 assay; read-out: In vitro MLL1 activity (IC50)
Procedure: Reaction was initiated with 1 μM 3H-SAM and incubated for 1 hour at 30° C. Reaction mixture was transferred to P81 filter-paper and washed with PBS before detection.

[2] = biological target: WDR5 protein (Homo sapiens (Human), UniProt P61964); assay: Surface Plasmon Resonance (SPR) assay; assay type: binding; conditions: SPR; for residence time: τ=1/koff, read-out: Residence Time (t, min)
[3] = tested on: MV4-11 cells; assay: Cell proliferation assay (ATPlite); assay type: cell-based; conditions: Homo sapiens, MV4-11, 120 h; MV-411 cells, five days; read-out: In vitro whole cell potency in MV-411 cells, (IC50)
Procedure: MV4-11 cells were seeded into a 96-well plate at 1,000 cells/well in 150 μl medium (Alpha-MEM containing 10% FBS, 100 μg/ml Normocin, and 50 μg/ml Gentamycin, Invitrogen). A HP D300 digital dispenser was used to dose cells with DMSO or test compounds across a 10-point range of concentrations (high dose of 10 μM), and cultures were grown in a humidified 5% CO2 incubator at 37° C. After five days, plates were removed from incubator and equilibrated to room temperature. An equal volume of ATPlite assay reagent was added to each well, and samples were processed according to manufacturer's instructions (Perkin Elmer). Luminescent signal was measured using an Envision plate reader equipped with a US-Luminescence detector.

[4] = Table 1, read-out: WDR5 binding affinity (KD)
[5] = Table 2, read-out: WDR5 binding affinity SPR (KD)

## CN1CCN(c2ccc(-c3cc(CN4C5COCC4C5)ccc3F)cc2NC(=O)c2c[nH]c(=O)cc2C(F)(F)F)CC1 [Example 74, N-(5′-(3-oxa-6-azabicyclo[3.1.1]heptan-6-ylmethyl)-2′-fluoro-4-(4-methylpiperazin-1-yl)-[1,1′-biphenyl]-3-yl)-6-oxo-4-(trifluoromethyl)-1,6-dihydropyridine-3-carboxamide]
[1]
  IC50: 1750 nM
[2]; [4]
  Kd: 4.8 nM
[2]; [5]
  Kd: 4.8 nM
[3]
  IC50: 5430 nM

## CN1CCN(c2ccc(-c3cc(CNC4CCCCC4)ccc3F)cc2NC(=O)c2c[nH]c(=O)cc2C(F)(F)F)CC1 [Example 7, N-(5′-((cyclohexylamino)methyl)-2′-fluoro-4-(4-methylpiperazin-1-yl)-[1,1′-biphenyl]-3-yl)-6-oxo-4-(trifluoromethyl)-1,6-dihydropyridine-3-carboxamide]
[1]
  IC50: 216 nM
[2]; [4]
  Kd: 4 nM
[2]; [5]
  Kd: 4 nM
[2]
  residence time: 7.88 min
[3]
  IC50: 410 nM

## CN1CCN(c2ccc(-c3cc(CN4CC[C@@H](N(C)C)C4)ccc3F)cc2NC(=O)c2c[nH]c(=O)cc2C(F)(F)F)CC1 [Example 71, (R)—N-(5′-((3-(dimethylamino)pyrrolidin-1-yl)methyl)-2′-fluoro-4-(4-methylpiperazin-1-yl)-[1,1′-biphenyl]-3-yl)-6-oxo-4-(trifluoromethyl)-1,6-dihydropyridine-3-carboxamide]
[1]
  IC50: 2070 nM
[2]; [4]
  Kd: 4.8 nM
[2]; [5]
  Kd: 4.8 nM
[2]
  residence time: 4.29 min
[3]
  IC50: 2710 nM

## CC1CN(c2ccc(-c3cc(CN4CCOCC4)ccc3F)cc2NC(=O)c2c[nH]c(=O)cc2C(F)(F)F)CCN1C (stereo not shown) [Example 26, N-(4-(3,4-dimethylpiperazin-1-yl)-2′-fluoro-5′-(morpholinomethyl)-[1,1′-biphenyl]-3-yl)-6-hydroxy-4-(trifluoromethyl)nicotinamide]
[2]; [4]
  Kd: 9 nM
[2]; [5]
  Kd: 9 nM
[2]
  residence time: 3.07 min
[3]
  IC50: 491 nM

## C[C@@H]1CN(c2ccc(-c3cc(CN(C)C4COC4)c(F)cc3F)cc2NC(=O)c2c[nH]c(=O)cc2C(F)(F)F)C[C@H](C)N1C [Example 113, N-(2′,4′-difluoro-5′-((methyl(oxetan-3-yl)amino)methyl)-4-((3S,5R)-3,4,5-trimethylpiperazin-1-yl)-[1,1′-biphenyl]-3-yl)-6-oxo-4-(trifluoromethyl)-1,6-dihydropyridine-3-carboxamide]
[1]
  IC50: 2100 nM
[2]; [4]
  Kd: 8.2 nM
[2]; [5]
  Kd: 8 nM
[2]
  residence time: 5.5 min

## CN1CCN(c2ccc(-c3cc(CN4CCOCC4)ccc3F)cc2NC(=O)c2c[nH]c(=O)cc2C(F)(F)F)CC1CO (stereo not shown) [Example 65, N-(2′-fluoro-4-(3-(hydroxymethyl)-4-methylpiperazin-1-yl)-5′-(morpholinomethyl)-[1,1′-biphenyl]-3-yl)-6-oxo-4-(trifluoromethyl)-1,6-dihydropyridine-3-carboxamide]
[1]
  IC50: 7300 nM
[2]; [4]
  Kd: 9.4 nM
[2]; [5]
  Kd: 9.4 nM
[2]
  residence time: 9.93 min

## CN1CCN(c2ccc(-c3cc(CNC(C)(C)C)ccc3F)cc2NC(=O)c2c[nH]c(=O)cc2C(F)(F)F)CC1 [Example 35, N-(5′-((tert-butylamino)methyl)-2′-fluoro-4-(4-methylpiperazin-1-yl)-[1,1′-biphenyl]-3-yl)-6-oxo-4-(trifluoromethyl)-1,6-dihydropyridine-3-carboxamide]
[1]
  IC50: 2390 nM
[2]; [4]
  Kd: 9 nM
[2]; [5]
  Kd: 9 nM
[2]
  residence time: 4.59 min

## CN1CCN(c2ccc(-c3cc(CN4CCOCC4)ccc3F)cc2NC(=O)c2cn(C)c(=O)cc2C(F)(F)F)CC1 [Example 13, N-(2′-fluoro-4-(4-methylpiperazin-1-yl)-5′-(morpholinomethyl)-[1,1′-biphenyl]-3-yl)-1-methyl-6-oxo-4-(trifluoromethyl)-1,6-dihydropyridine-3-carboxamide]
[1]
  IC50: 8980 nM
[2]; [4]
  Kd: 15 nM
[2]; [5]
  Kd: 15 nM
[2]
  residence time: 0.3 min
